From patent US12312605B2, “Riboflavin derivative-containing medium” (AJINOMOTO CO., INC., priority 2017, dated 2025)
Where a name gives a salt, the structure may show the parent alone.

Columns and labels:
Format in all cases: cell-based
iPS cells (201B7 strain) [1] = assay: Effective concentration of RFV derivatives: iPS cell growth in medium refrigerated for 2 weeks; parameters: key to cell growth: X; not grown; ◯; cell grown; details: for storage stability of medium compared with RFV: any medium (Essential 8 or TeSR2 supplement), refrigerated 2 weeks
Experimental: (§1) 201B7 strain purchased from iPS Academia Japan, Inc. was used as the iPS cell. Cell culture was performed using a culture vessel coated with Matrigel (Nippon Becton, Dickinson and Company: 354277) or iMatrix-511 (Nippi. Inc.: 892002) as an extracellular matrix under conditions of 5% CO2/37° C.
(§2) Modified DMEM/F-12 was mixed with each supplement of Essential 8 (Thermo Fisher SCIENTIFIC: A1517001), TeSR-E8 (STEMCELL Technologies: #05940), TeSR2 (STEMCELL Technologies: #05860) to prepare a complete medium. The medium was stored in a refrigerator with a glass door under non-light-shielding (fluorescent light irradiation time: 10 hr/day) and then used for culture, based on which the storage stability of the medium was studied.
The effectiveness of FAD and RTB, which are RFV derivatives, was studied, and the effective concentration ranges of FMN, FAD and RTB were studied. A complete medium was prepared using Modified DMEM/F-12 (FMN−) as the basal medium and Essential 8 or TeSR2 supplement as the supplement. RFV, FMN (Riboflavin 5′-Monophosphate Sodium Salt), FAD (Flavin Adenine Dinucleotide Disodium Salt Hydrate (Tokyo Chemical m Industry Co., Ltd., F0014, hereinafter the same)) and RTB (Riboflavin Tetrabutyrate, Wako Pure Chemical Industries, Ltd., 185-00861) were each added to the complete medium at a final concentration of 0.47 to 15.2 μM (concentration converted to free form anhydrate in the case of salt and/or hydrate). A medium supplemented with Fe^2+ and Zn^2+ at 100 mol % was also prepared.
(§3) Each medium was refrigerated under non-light-shielding for 2 weeks and then the proliferation ability of iPS cells was studied. A 12-well plate coated with Matrigel was prepared, 10,000 cells per well were seeded in a single cell state. On the day when the cells were seeded, the evaluation was performed using the medium prepared above. The culture period was set to 7 days, and the cell confluency was measured using IncuCyte Zoom on day 7 from the start of the culture. At the time of seeding, a medium supplemented with Y-27632 at a final concentration of 10 μM was used. In the evaluation from the following day, the cells were cultured in a medium not supplemented with Y-27632.
To study the effective concentration range of FAD, which is an RFV derivative, the unperformed part of Example 5 was evaluated. A complete medium was prepared using Modified DMEM/F-12 (FMN−) as the basal medium and TeSR2 supplement as the supplement. FAD (Flavin Adenine Dinucleotide Disodium Salt Hydrate) was added to the complete medium at a final concentration of 0.47 to 15.2 μM. A medium supplemented with Fe^2+ and Zn^2+ at 100 mol % was prepared.

iPS cells (201B7 strain) [2] = assay: Influence of Fe, Zn, RFV on storage stability of medium (iPS cell confluency); details: Essential 8 supplement; for contribution to lowering of storage stability of the medium: 100 vs 25 mol % in Modified DMEM/F-12 with FMN 20 mol %, refrigerated 2 weeks
Experimental: as §1, §2
To what extent Fe^2+, Zn^2+ and RFV contribute to the storage stability of the medium was studied. Complete media were respectively prepared by adding each component to Modified DMEM/F-12 (FMN−) (Table 5). Each medium was refrigerated under non-light-shielding for 0 and 2 weeks and then the proliferation ability of iPS cells was studied.
as §3, with “A” for “Each medium was refrigerated under non-light-shielding for 2 weeks and then the proliferation ability of iPS cells was studied. A”

iPS cells (201B7 strain) [3] = assay: Effectiveness of RFV during iPS cell culture (cell confluency, day 7); details: Modified DMEM/F-12 (FMN-) + Essential 8 supplement, RFV 0.00-0.176 mg/L, Fe2+ and Zn2+ 25 or 100 mol %, Matrigel
Experimental: 201B7 strain purchased from iPS Academia Japan, Inc. was used as the iPS cell. Cell culture was performed using a culture vessel coated with Matrigel (Nippon Becton, Dickinson and Company: 354277) or iMatrix-511 (Nippi. Inc.: 892002) as an extracellular matrix under conditions of 5% CO2/37° C. Whether RFV is an essential component during iPS cell culture was studied. A complete medium was prepared by mixing the basal medium (Solution A: Modified DMEM/F-12 (FMN−)) and Essential 8 supplement (Solution B). Media were prepared by adding RFV to the complete medium to final concentrations of 0.00, 0.0176, 0.044, 0.088, 0.176 mg/L (No. 1 to No. 5 in Table 3). Along therewith, to grasp the influence of the reduced mineral components, media supplemented with Fe^2+ and Zn^2+ at 100 mol % were also prepared (No. 6 to No. 10 in Table 3). After preparing the medium, a 12-well plate coated with Matrigel was prepared, and 10,000 cells per well were seeded in a single cell state. On the day when the cells were seeded, the evaluation was performed using the medium prepared above. The culture period was set to 7 days, and the cell confluency was measured as an index of cell proliferation using IncuCyte Zoom (Essen Bioscience) on day 7 from the start of the culture. […]

[4] = 0.47 μM (80 mol % vs DMEM/F-12), Fe2+ and Zn2+ 25 mol %, Essential 8 supplement, medium refrigerated 2 weeks
[5] = 0.47 μM (80 mol % vs DMEM/F-12), Fe2+ and Zn2+ 25 mol %, TeSR2 supplement, medium refrigerated 2 weeks
[6] = 0.47 μM (80 mol % vs DMEM/F-12), Fe2+ and Zn2+ 100 mol %, Essential 8 supplement, medium refrigerated 2 weeks
[7] = 0.47 μM (80 mol % vs DMEM/F-12), Fe2+ and Zn2+ 100 mol %, TeSR2 supplement, medium refrigerated 2 weeks, Example 5
[8] = 1.52 μM (259 mol % vs DMEM/F-12), Fe2+ and Zn2+ 25 mol %, Essential 8 supplement, medium refrigerated 2 weeks
[9] = 1.52 μM (259 mol % vs DMEM/F-12), Fe2+ and Zn2+ 100 mol %, Essential 8 supplement, medium refrigerated 2 weeks
[10] = 2.57 μM (437 mol % vs DMEM/F-12), Fe2+ and Zn2+ 25 mol %, TeSR2 supplement, medium refrigerated 2 weeks
[11] = 15.2 μM (2587 mol % vs DMEM/F-12), Fe2+ and Zn2+ 25 mol %, TeSR2 supplement, medium refrigerated 2 weeks
[12] = 15.2 μM (2587 mol % vs DMEM/F-12), Fe2+ and Zn2+ 100 mol %, TeSR2 supplement, medium refrigerated 2 weeks, Example 5
[13] = 2.57 μM (437 mol % vs DMEM/F-12), Fe2+ and Zn2+ 100 mol %, TeSR2 supplement, medium refrigerated 2 weeks, Example 5

## Cc1cc2nc3c(=O)[nH]c(=O)nc-3n(C[C@H](O)[C@H](O)[C@H](O)COP(=O)(O)OP(=O)(O)OC[C@H]3O[C@@H](n4cnc5c(N)ncnc54)[C@H](O)[C@@H]3O)c2cc1C [FAD, Flavin Adenine Dinucleotide Disodium Salt Hydrate]
iPS cells (201B7 strain) [1]; [4]
  cell growth: ◯
iPS cells (201B7 strain) [1]; [5]
  cell growth: ◯
iPS cells (201B7 strain) [1]; [6]
  cell growth: ◯
iPS cells (201B7 strain) [1]; [7]
  cell growth: ◯
iPS cells (201B7 strain) [1]; 0.47 μM (80 mol % vs DMEM/F-12), Fe2+ and Zn2+ 100 mol %, TeSR2 supplement, medium refrigerated 2 weeks, Example 6
  cell growth: ◯
iPS cells (201B7 strain) [1]; [8]
  cell growth: ◯
iPS cells (201B7 strain) [1]; [9]
  cell growth: X
iPS cells (201B7 strain) [1]; [10]
  cell growth: ◯
iPS cells (201B7 strain) [1]; 2.57 μM (437 mol % vs DMEM/F-12), Fe2+ and Zn2+ 100 mol %, TeSR2 supplement, medium refrigerated 2 weeks, Example 6
  cell growth: ◯
iPS cells (201B7 strain) [1]; [11]
  cell growth: ◯
iPS cells (201B7 strain) [1]; [12]
  cell growth: X
iPS cells (201B7 strain) [1]; 15.2 μM (2587 mol % vs DMEM/F-12), Fe2+ and Zn2+ 100 mol %, TeSR2 supplement, medium refrigerated 2 weeks, Example 6
  cell growth: X
iPS cells (201B7 strain) [1]; Essential 8 or TeSR2 supplement, medium refrigerated 2 weeks
  concentration at which culturing was possible (comparison): higher for FAD than FMN and RTB
iPS cells (201B7 strain) [1]
  storage stability of medium compared with RFV: higher storage stability than that of RFV

## Cc1cc2nc3c(=O)[nH]c(=O)nc-3n(C[C@H](O)[C@H](O)[C@H](O)COP(=O)(O)O)c2cc1C [FMN, Riboflavin 5′-Monophosphate Sodium Salt]
iPS cells (201B7 strain) [1]; [4]
  cell growth: ◯
iPS cells (201B7 strain) [1]; [5]
  cell growth: ◯
iPS cells (201B7 strain) [1]; [6]
  cell growth: ◯
iPS cells (201B7 strain) [1]; [7]
  cell growth: ◯
iPS cells (201B7 strain) [1]; [8]
  cell growth: X
iPS cells (201B7 strain) [1]; [9]
  cell growth: X
iPS cells (201B7 strain) [1]; [10]
  cell growth: ◯
iPS cells (201B7 strain) [1]; [13]
  cell growth: X
iPS cells (201B7 strain) [1]; [11]
  cell growth: X
iPS cells (201B7 strain) [1]; [12]
  cell growth: X
iPS cells (201B7 strain) [1]
  storage stability of medium compared with RFV: higher storage stability than that of RFV

## O.O.O.O.O.O.O.O=S(=O)([O-])[O-].[Fe+2] [Fe^2+, iron (II) sulfate heptahydrate]
iPS cells (201B7 strain) [2]
  contribution to lowering of storage stability of the medium: do not contribute to lowering of storage stability

## Cc1cc2nc3c(=O)[nH]c(=O)nc-3n(C[C@H](O)[C@H](O)[C@H](O)CO)c2cc1C [RFV, riboflavin]
iPS cells (201B7 strain) [2]; medium refrigerated non-light-shielded 2 weeks, Matrigel, day 7
  cell growth after storage of medium: cells could not grow after storage for 2 weeks
iPS cells (201B7 strain) [1]; [4]
  cell growth: X
iPS cells (201B7 strain) [1]; [5]
  cell growth: ◯
iPS cells (201B7 strain) [1]; [6]
  cell growth: X
iPS cells (201B7 strain) [1]; [7]
  cell growth: ◯
iPS cells (201B7 strain) [1]; [8]
  cell growth: X
iPS cells (201B7 strain) [1]; [9]
  cell growth: X
iPS cells (201B7 strain) [1]; [10]
  cell growth: X
iPS cells (201B7 strain) [1]; [13]
  cell growth: X
iPS cells (201B7 strain) [1]; [11]
  cell growth: X
iPS cells (201B7 strain) [1]; [12]
  cell growth: X
iPS cells (201B7 strain) [3]
  effectiveness of RFV during iPS cell culture (cell confluency): essential for cell culture

## CCCC(=O)OC[C@@H](OC(=O)CCC)[C@@H](OC(=O)CCC)[C@H](Cn1c2nc(=O)[nH]c(=O)c-2nc2cc(C)c(C)cc21)OC(=O)CCC [RTB, Riboflavin Tetrabutyrate]
iPS cells (201B7 strain) [1]; [4]
  cell growth: ◯
iPS cells (201B7 strain) [1]; [5]
  cell growth: ◯
iPS cells (201B7 strain) [1]; [6]
  cell growth: ◯
iPS cells (201B7 strain) [1]; [7]
  cell growth: ◯
iPS cells (201B7 strain) [1]; [8]
  cell growth: X
iPS cells (201B7 strain) [1]; [9]
  cell growth: X
iPS cells (201B7 strain) [1]; [10]
  cell growth: X
iPS cells (201B7 strain) [1]; [13]
  cell growth: X
iPS cells (201B7 strain) [1]; [11]
  cell growth: X
iPS cells (201B7 strain) [1]; [12]
  cell growth: X
iPS cells (201B7 strain) [1]
  storage stability of medium compared with RFV: higher storage stability than that of RFV

## O.O.O.O.O.O.O.O=S(=O)([O-])[O-].[Zn+2] [Zn^2+, zinc sulfate heptahydrate]
iPS cells (201B7 strain) [2]
  contribution to lowering of storage stability of the medium: do not contribute to lowering of storage stability
